Measurements published in patent publication US20250120643A1, “INGESTIBLE AND/OR IMPLANTABLE ARTICLES FOR MONITORING ELECTRICAL SIGNALS AND RELATED METHODS” (Massachusetts Institute of Technology, priority 2023, published 2025).
“Also recorded” adds a separate entry of the source.

Key:
[1] = tested on: gastric slow wave and all other recorded signals; experiment: Animal euthanasia study: MiGUT recording during administration of a barbiturate cocktail; assay type: in vivo, Yorkshire swine; conditions: pig, euthanization during recording; 1 ml/10 lbs
Source text: In an anesthetized Yorkshire pig, the device was delivered into the stomach and the electrode is shown to unroll and conform to the gastric mucosa along the greater curvature of the stomach (FIG. 7A). The reference electrode was localized near the stomach corpus (Schematic in FIG. 8). One and a half hours of recorded data in this experiment (at 62.5 samples/s) was used to generate a heat map of electrical activity vs time and channel (FIG. 7B(i)). Initial electrical activity seen in all channels following device placement (t=0 to 500 seconds) is most likely due to mechanical stimulation as a consequence of endoscopic visualization following device deployment. Channels near the pylorus (FIG. 7B(ii), channels 0-2) measured large amplitude, prolonged waveforms with periods of ca. 500 seconds with approximately 6 total cycles. […] These signals were also observed in separate experiments using the MiGUT system in different animals (N=5, Table 1).
For non-survival procedures, the animal was sedated with intramuscular injection of Telazol (tiletamine/zolazepam) 5 mg/kg and xylazine 2 mg/kg and euthanized using Fatal Plus (sodium pentobarbital), 1 ml/10 lbs. Heart rate and respiration rate are assessed via vitals monitor to ensure that the pig has been euthanized. […]

[2] = tested on: gastric slow wave; experiment: Azithromycin motility experiment: MiGUT recording in the stomach of anesthetized swine before and after intravenous prokinetic delivery; assay type: in vivo, Yorkshire swine; conditions: anesthetized pig
Experimental: Motivated by the capability of the MiGUT system to detect gastric slow wave activity, an experiment was designed to test if the changes or modulations in gastric motility could also be detected. The MiGUT system was again placed in the porcine stomach of an anesthetized animal and following baseline recording, azithromycin, a known prokinetic which activates motilin receptors, was intravenously delivered (1 mg/kg total dose) via ear catheter over the course of 5 minutes (FIG. 10A(i)). […] Replicates of this experiment produced similar increases in the slow wave power (FIG. 12).
All animal experiments were approved by and performed in accordance with the Committee on Animal Care at MIT. Yorkshire swine were obtained from Cummings School of Veterinary Medicine at Tufts University (Grafton, MA, USA) for in-vivo experiments. Pigs weighing approximately 60-100 kg were placed on a liquid diet for 24 hours the day before the study and were fasted overnight prior to the study. For device placement, animals were anesthetized using an intramuscular injection of midazolam 0.25 mg/kg and dexmedetomidine 0.03 mg/kg. Following sedation, animals were placed on thermal support and ophthalmic ointment was applied to both eyes. The animal was intubated and placed on isoflurane (2%) in oxygen and connected to a vital signs monitoring system. The MiGUT device was delivered orally into the stomach, using an orogastric tube and imaged using PENTAX EC-3870TLK (160 cm) to visualize the stomach with the animal in the left lateral position.
For azithromycin experiments, following ca. 1 hr of baseline recording in the anesthetized animal, 1 mg/kg animal weight of 20 mg/ml Azithromycin (Sigma-Aldrich) solution (in PBS pH adjusted with HCL, Thermofischer) was delivered via ear catheter over the course of 5 minutes. Measurements were conducted for a minimum of 45 minutes following drug delivery. Power was calculated by summing the square of the voltage measurements in a 25 minute time window. Difference in power was calculated as (Pinitial-Pfinal)/Pinitial.
Finally, to show this system can track changes in motility, Azithromycin was administered halfway during six studies. […] It was intravenously delivered at 1 mg/kg over 5 minutes through an ear catheter. […] This indicates throughout this duration of increased gastric activity (with suspected contractions), the electrodes continued to make good contact. Thus, MiGUT is shown to be able to track changes in gastric motility and maintain a reliable interface with the mucosa.

## CCCC(C)C1(CC)C(=O)N=C([O-])NC1=O.[Na+] (centres unmarked) [barbiturate cocktail, sodium pentobarbital]
[1]
  effect on waveforms recorded by MiGUT (slow wave and all other signals): terminated; also recorded: cessation of all waveforms

## CC[C@H]1OC(=O)[C@H](C)[C@@H](O[C@H]2C[C@@](C)(OC)[C@@H](O)[C@H](C)O2)[C@H](C)[C@@H](O[C@@H]2O[C@H](C)C[C@H](N(C)C)[C@H]2O)[C@](C)(O)C[C@@H](C)CN(C)[C@H](C)[C@@H](O)[C@]1(C)O [azithromycin]
[2]; 1 mg/kg i.v. over 5 minutes through ear catheter, six studies
  changes in the respiration and heart rate frequency bands: no significant changes
[2]; 1 mg/kg i.v. over 5 minutes through ear catheter, six studies, seen in five of the recording channels
  amplitude of the slow wave: significant increase
[2]; 1 mg/kg i.v. over 5 minutes, 25 minutes after vs 25 minutes prior to dosing
  power in the EKG or respiratory frequency windows: no significant change in power
[2]; 1 mg/kg i.v. via ear catheter over 5 minutes, 25 minutes after vs 25 minutes prior to dosing, seen in 5 of the 8 recording channels
  power in the slow wave frequency range: noticeable increase in power
